From patent US8450313B2, “2,3-diaryl- or heteroaryl-substituted 1,1,1-trifluoro-2-hydroxypropyl compounds” (Hoffmann-La Roche Inc., priority 2009, dated 2013)

target: T1, full length human recombinant glucocorticoid receptor (Homo sapiens, UniProt P04150); assay: Glucocorticoid Receptor Binding Assay (Glucocorticoid Receptor Competitor Assay far red kit, fluorescence polarization); conditions: competition with fluorescent GR ligand Fluormone GS Far Red, 3 hours at 22° C., pH 7.4; Ki calculated from IC50 by Cheng-Prusoff
T1 construct: It contains some partially purified full length human recombinant glucocorticoid receptor; purchased Panvera/Invitrogen PV4302
T1 sequence (P04150 1-777): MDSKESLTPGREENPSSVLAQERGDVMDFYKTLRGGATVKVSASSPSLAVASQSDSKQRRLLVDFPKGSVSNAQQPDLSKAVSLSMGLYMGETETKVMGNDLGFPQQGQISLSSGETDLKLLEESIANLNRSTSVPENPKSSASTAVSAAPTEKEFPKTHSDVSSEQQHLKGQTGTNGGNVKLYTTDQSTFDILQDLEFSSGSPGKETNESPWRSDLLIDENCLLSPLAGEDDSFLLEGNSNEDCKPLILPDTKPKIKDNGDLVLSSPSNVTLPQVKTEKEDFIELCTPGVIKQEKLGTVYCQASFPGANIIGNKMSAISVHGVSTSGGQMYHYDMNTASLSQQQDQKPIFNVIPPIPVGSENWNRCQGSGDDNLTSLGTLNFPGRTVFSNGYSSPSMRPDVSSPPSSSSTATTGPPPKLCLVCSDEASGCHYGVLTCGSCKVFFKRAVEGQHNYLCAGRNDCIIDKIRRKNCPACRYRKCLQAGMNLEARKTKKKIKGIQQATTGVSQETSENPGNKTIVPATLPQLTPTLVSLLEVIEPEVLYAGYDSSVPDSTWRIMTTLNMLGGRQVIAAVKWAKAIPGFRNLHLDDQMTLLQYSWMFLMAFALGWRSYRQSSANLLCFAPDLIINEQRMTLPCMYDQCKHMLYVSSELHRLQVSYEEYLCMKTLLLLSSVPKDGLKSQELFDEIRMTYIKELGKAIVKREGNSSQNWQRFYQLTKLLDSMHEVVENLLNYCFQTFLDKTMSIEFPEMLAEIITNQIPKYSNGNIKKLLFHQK
Description: Glucocorticoid Receptor Binding Assay
The ability of the substances to bind to the glucocorticoid receptor was determined with the help of a commercial Glucocorticoid Receptor Competitor Assay far red kit provided by Panvera/Invitrogen (PV4302). This kit is used as provided by the supplier. It contains some partially purified full length human recombinant glucocorticoid receptor, a coactivator related GR stabilizing peptide, a tight-binding fluorescent GR ligand Fluormone™ GS Far Red as labeled tracer and a screening buffer. All reagents are prepared and the assay is run according to the recommendations of the kit manufacturer.
Briefly, the GR stabilizing peptide and the human recombinant glucocorticoid receptor are both diluted with the screening buffer (pH 7.4) and are gently mixed (no vortexing) just before the assay and kept on ice until use. The fluorescent-labeled ligand is also diluted with the screening buffer just before the assay and kept on ice until use. The substances to test are pre-diluted in pure DMSO then some water is added to get an intermediate 4.2% DMSO stock solution. Ten microliter of the intermediate stock solution is gently mixed with 5 μA of diluted fluorescent-labeled ligand and 5 μl of diluted human recombinant glucocorticoid receptor in a 384-well plate (low volume, ultraclear, glass plate from Greiner ref 788896). The plate is centrifuged, sealed and incubated for 3 hours at 22° C. in the dark. The polarized fluorescence is measured with a Zeiss-HTS reader or any equivalent equipment (610-660 nm).
All compounds were tested to determine IC50 in a serial dilution experiment. The concentration at which 50% inhibition of the fluorescent GR ligand Fluormone™ GS Far Red is obtained (the IC50) is determined after fitting with a sigmoidal dose-response model of a plot of the logarithm of the concentration versus percent inhibition measured for the different concentrations. Ki's were calculated from IC50 based on Cheng-Prusoff equation (Cheng, Y, Prusoff, W H (1973) Biochem Pharmacol 22, 3099-3108): Ki=IC50/[1+D/Kd] wherein D is the concentration of the fluorescent ligand and Kd is the binding constant for the fluorescent ligand binding to the receptor under the conditions used in the competition experiment.

Ki [nM] | Structure (SMILES)
10.6 | C[C@H](c1ccc(Oc2cnc(C(=O)O)cn2)cc1Cl)[C@@](O)(c1ccc2c(c1)N(C)C(=O)CO2)C(F)(F)F (racemic) [Example 228, 5-{3-Chloro-4-[3,3,3-trifluoro-2-hydroxy-1-methyl-2-(4-methyl-3-oxo-3,4-dihydro-2H-benzo[1,4]oxazin-6-yl)-propyl]-phenoxy}-pyrazine-2-carboxylic acid]
2 | C[C@@H](c1cc(OCc2ccc(C(=O)O)cc2)ccc1Cl)[C@](O)(c1ccc2c(c1)N(C)C(=O)CO2)C(F)(F)F (relative stereo) [Example 2, 4-{4-Chloro-3-[3,3,3-trifluoro-2-hydroxy-1-methyl-2-(4-methyl-3-oxo-3,4-dihydro-2H-benzo[1,4]oxazin-6-yl)-propyl]-phenoxymethyl}-benzoic acid]
426 | C[C@@H](c1cc(OCC(=O)O)ccc1Cl)[C@](O)(c1ccc2c(c1)N(C)C(=O)CO2)C(F)(F)F (relative stereo) [Example 4, {4-Chloro-3-[3,3,3-trifluoro-2-hydroxy-1-methyl-2-(4-methyl-3-oxo-3,4-dihydro-2H-benzo[1,4]oxazin-6-yl)-propyl]-phenoxy}-acetic acid]
7.5 | CCOC(=O)c1cccc(Oc2ccc(Cl)c([C@H](C)[C@](O)(c3ccc4c(c3)N(C)C(=O)CO4)C(F)(F)F)c2)c1 (relative stereo) [Example 5, 3-{4-Chloro-3-[3,3,3-trifluoro-2-hydroxy-1-methyl-2-(4-methyl-3-oxo-3,4-dihydro-2H-benzo[1,4]oxazin-6-yl)-propyl]-phenoxy}-benzoic acid ethyl ester]
11.1 | COC(=O)c1ccc(Oc2ccc(Cl)c([C@H](C)[C@](O)(c3ccc4c(c3)N(C)C(=O)CO4)C(F)(F)F)c2)cc1 (relative stereo) [Example 7, 4-{4-Chloro-3-[3,3,3-trifluoro-2-hydroxy-1-methyl-2-(4-methyl-3-oxo-3,4-dihydro-2H-benzo[1,4]oxazin-6-yl)-propyl]-phenoxy}-benzoic acid methyl ester]
10.8 | C[C@@H](c1cc(Oc2ccc(C(=O)O)cc2)ccc1Cl)[C@](O)(c1ccc2c(c1)N(C)C(=O)CO2)C(F)(F)F (relative stereo) [Example 8, 4-{4-Chloro-3-[3,3,3-trifluoro-2-hydroxy-1-methyl-2-(4-methyl-3-oxo-3,4-dihydro-2H-benzo[1,4]oxazin-6-yl)-propyl]-phenoxy}-benzoic acid]
8.9 | COC(=O)c1ccc(Oc2ccc(Cl)c([C@H](C)[C@](O)(c3ccc4c(c3)N(C)C(=O)CO4)C(F)(F)F)c2)cc1Cl (relative stereo) [Example 9, 2-Chloro-4-{4-chloro-3-[3,3,3-trifluoro-2-hydroxy-1-methyl-2-(4-methyl-3-oxo-3,4-dihydro-2H-benzo[1,4]oxazin-6-yl)-propyl]-phenoxy}-benzoic acid methyl ester]
3.7 | C[C@@H](c1cc(Oc2ccc(C(=O)O)c(Cl)c2)ccc1Cl)[C@](O)(c1ccc2c(c1)N(C)C(=O)CO2)C(F)(F)F (relative stereo) [Example 10, 2-Chloro-4-{4-chloro-3-[3,3,3-trifluoro-2-hydroxy-1-methyl-2-(4-methyl-3-oxo-3,4-dihydro-2H-benzo[1,4]oxazin-6-yl)-propyl]-phenoxy}-benzoic acid]
2.4 | C[C@@H](c1cc(Oc2ccc(F)c(C(=O)O)c2)ccc1Cl)[C@](O)(c1ccc2c(c1)N(C)C(=O)CO2)C(F)(F)F (relative stereo) [Example 11, 5-{4-Chloro-3-[3,3,3-trifluoro-2-hydroxy-1-methyl-2-(4-methyl-3-oxo-3,4-dihydro-2H-benzo[1,4]oxazin-6-yl)-propyl]-phenoxy}-2-fluoro-benzoic acid]
8 | C[C@@H](c1cc(Oc2cccc(CC(=O)O)c2)ccc1Cl)[C@](O)(c1ccc2c(c1)N(C)C(=O)CO2)C(F)(F)F (relative stereo) [Example 12, (3-{4-Chloro-3-[3,3,3-trifluoro-2-hydroxy-1-methyl-2-(4-methyl-3-oxo-3,4-dihydro-2H-benzo[1,4]oxazin-6-yl)-propyl]-phenoxy}-phenyl)-acetic acid]
5.4 | COC(=O)c1ccc(Oc2ccc(Cl)c([C@H](C)[C@](O)(c3ccc4c(c3)N(C)C(=O)CO4)C(F)(F)F)c2)cc1F (relative stereo) [Example 13, 4-{4-Chloro-3-[3,3,3-trifluoro-2-hydroxy-1-methyl-2-(4-methyl-3-oxo-3,4-dihydro-2H-benzo[1,4]oxazin-6-yl)-propyl]-phenoxy}-2-fluoro-benzoic acid methyl ester]
3.9 | C[C@@H](c1cc(Oc2ccc(C(=O)O)c(F)c2)ccc1Cl)[C@](O)(c1ccc2c(c1)N(C)C(=O)CO2)C(F)(F)F (relative stereo) [Example 14, 4-{4-Chloro-3-[3,3,3-trifluoro-2-hydroxy-1-methyl-2-(4-methyl-3-oxo-3,4-dihydro-2H-benzo[1,4]oxazin-6-yl)-propyl]-phenoxy}-2-fluoro-benzoic acid]
3.7 | C[C@@H](c1cc(Oc2ccc(Cl)c(C(=O)O)c2)ccc1Cl)[C@](O)(c1ccc2c(c1)N(C)C(=O)CO2)C(F)(F)F (relative stereo) [Example 15, 2-Chloro-5-{4-chloro-3-[3,3,3-trifluoro-2-hydroxy-1-methyl-2-(4-methyl-3-oxo-3,4-dihydro-2H-benzo[1,4]oxazin-6-yl)-propyl]-phenoxy}-benzoic acid]
2.5 | C[C@@H](c1cc(Oc2ccc(C(=O)O)cc2F)ccc1Cl)[C@](O)(c1ccc2c(c1)N(C)C(=O)CO2)C(F)(F)F (relative stereo) [Example 16, 4-{4-Chloro-3-[3,3,3-trifluoro-2-hydroxy-1-methyl-2-(4-methyl-3-oxo-3,4-dihydro-2H-benzo[1,4]oxazin-6-yl)-propyl]-phenoxy}-3-fluoro-benzoic acid]
55.6 | C[C@@H](c1cc(-c2ccc(C(=O)O)cc2)ccc1Cl)[C@](O)(c1ccc2c(c1)N(C)C(=O)CO2)C(F)(F)F (relative stereo) [Example 17, 4′-Chloro-3′-[3,3,3-trifluoro-2-hydroxy-1-methyl-2-(4-methyl-3-oxo-3,4-dihydro-2H-benzo[1,4]oxazin-6-yl)-propyl]-biphenyl-4-carboxylic acid]
609 | C[C@@H](c1cc(-c2cccc(C(=O)O)c2)ccc1Cl)[C@](O)(c1ccc2c(c1)N(C)C(=O)CO2)C(F)(F)F (relative stereo) [Example 18, 4′-Chloro-3′-[3,3,3-trifluoro-2-hydroxy-1-methyl-2-(4-methyl-3-oxo-3,4-dihydro-2H-benzo[1,4]oxazin-6-yl)-propyl]-biphenyl-3-carboxylic acid]
214 | COC(=O)CC1CCN(C(=O)c2ccc(Cl)c([C@H](C)[C@](O)(c3ccc4c(c3)N(C)C(=O)CO4)C(F)(F)F)c2)CC1 (relative stereo) [Example 19, (1-{4-Chloro-3-[3,3,3-trifluoro-2-hydroxy-1-methyl-2-(4-methyl-3-oxo-3,4-dihydro-2H-benzo[1,4]oxazin-6-yl)-propyl]-benzoyl}-piperidin-4-yl)-acetic acid methyl ester]
19.6 | C[C@@H](c1ccc(-c2ccccc2C(=O)O)cc1Cl)[C@](O)(c1ccc2c(c1)N(C)C(=O)CO2)C(F)(F)F (relative stereo) [Example 24, 3′-Chloro-4′-[3,3,3-trifluoro-2-hydroxy-1-methyl-2-(4-methyl-3-oxo-3,4-dihydro-2H-benzo[1,4]oxazin-6-yl)-propyl]-biphenyl-2-carboxylic acid]
